Literature values as cited in US20080167477A1, “NOVEL POLYMORPHIC FORMS OF […] AND PROCESS FOR PREPARING THE SAME” (MATRIX LABORATORIES LIMITED, priority 2007, published 2008).

Conditions: compared to the free base of carvedilol; disclosed in WO 2004/002419

COc1ccccc1OCCNCC(O)COc1cccc2[nH]c3ccccc3c12.O=P(O)(O)O (stereo not shown) [carvedilol dihydrogen phosphate]
solubility: higher solubility when compared to the free base of carvedilol
